Legend:
IL-23R = IL-23R expression in naïve human CD4+ T cells, flow cytometry; format: cell-based; conditions: 10 μM PGE2, 10 μM butaprost, 35 μM misoprostol, 10 μM sulprostone; restimulated 48 hours; FIGS. 4A, 4B
Description: FIGS. 4A and 4B present results obtained in experiments in which naïve human CD4^+ T cells are activated with T cell activation beads and cultured in the presence or absence of PGE2 or specific EP receptors agonists.
(§1) Methods used in this example are generally as described at Wilson et al. (2007) Nature Immunology 8:950. More specifically, cell culture is performed as follows. Naïve CD4^+ CD45RO^− T cells are isolated and cultured as described previously (Wilson et al. (2007), supra). Memory CD4^+ CD45RA^− T cells are isolated using the memory T cell isolation kit, human (Miltenyi, Auburn, Calif.), according to the manufacturer's instructions. Where indicated, 50 ng/ml hIL-23, 50 ng/ml hIL-1β (R&D Systems, Minneapolis, Minn.), 10 μM PGE2 (Sigma, St. Louis, Mo.), 10 μM butaprost (EP2 selective agonist), 35 μM misoprostol (EP4, EP3>EP1>EP2 agonist), and/or 10 μM sulprostone (EP1, EP3 agonist, Cayman Chemical, Ann Arbor, Mich.) are added.
For analysis of cell surface proteins, cells are stained with anti-CD4, anti-CD3, anti-CD45RA, anti-CCR6 (BD Biosciences), and/or anti-IL-23R (R&D Systems) antibodies. Data are acquired on a LSR II cytometer and analyzed with FlowJo software (Tree Star, Ashland, Oreg.).
Further experiments are performed to determine the effect of PGE2, or agonists thereof, on the expression of IL-23R in naïve human CD4^+ T cells in culture. […]

IL-1R1 = IL-1R1 gene expression in response to PGE2; format: cell-based, human; conditions: data not shown
Description: (§2) Real-time quantitative PCR is performed as described previously (Wilson et al. (2007), supra).
Further experiments are performed to determine the effect of PGE2, or agonists thereof, on the expression of IL-23R in naïve human CD4^+ T cells in culture. […] In addition, IL-1R1 gene expression is increased in response to PGE2 (data not shown).

naïve human CD4+ T cells = assay: Cytokine expression by naïve human CD4+ T cells cultured with IL-1β and IL-23, with or without PGE2 or EP receptor agonists; format: cell-based; conditions: together with IL-1β and IL-23
Description: FIGS. 5A, 5B and 5C present results obtained in naïve human CD4^+ T cells activated with T cell activation beads and cultured in the presence or absence of IL-23 and IL-1β, with or without PGE2 or the EP receptors agonists butaprost, misoprostol, and sulprostone. Data in FIGS. 5A-5C reflect IL-17A, IFN-γ and IL-10 production in cell-free supernatants of T cells restimulated for 48 hours, respectively. Results in each figure are representative of two independent experiments.
as §1
ELISA and electrochemiluminescence assays are performed as described previously (Wilson et al. (2007), supra). IL-10 ELISA is performed using a kit from R&D Systems. […]

CCR6 = CCR6 expression in naïve human CD4+ T cells, flow cytometry; format: cell-based; conditions: PGE2 added to IL-1β and IL-23; FIG. 6A
Description: FIGS. 6A, 6B and 6C present results obtained with naïve human CD4^+ T cells cultured as described with reference to FIGS. 5A-5C. […] Results represent mean±s.e.m. of nine independent experiments. For data presented in FIGS. 6B and 6C, naïve T cells are cultured in the presence of IL-1β, IL-23, and PGE2. After reactivation, CD4^+ CCR6^+ and CD4^+CCR6^− T cells are sorted and cultured for seven days in the presence of IL-2. […] Results in each of FIGS. 6B and 6C reflect the results of four independent experiments.
Methods used in this example are generally as described at Wilson et al. (2007) Nature Immunology 8:950. More specifically, cell culture is performed as follows. Naïve CD4^+ CD45RO^− T cells are isolated and cultured as described previously (Wilson et al. (2007), supra). Memory CD4^+ CD45RA^− T cells are isolated using the memory T cell isolation kit, human (Miltenyi, Auburn, Calif.), according to the manufacturer's instructions. […]
For analysis of cell surface proteins, cells are stained with anti-CD4, anti-CD3, anti-CD45RA, anti-CCR6 (BD Biosciences), and/or anti-IL-23R (R&D Systems) antibodies. Data are acquired on a LSR II cytometer and analyzed with FlowJo software (Tree Star, Ashland, Oreg.). […]

[1] = tested on: human memory CD4+ T cells; assay: Cytokine production and gene expression in activated human memory CD4+ T cells; format: cell-based
Description: FIGS. 7A and 7B present results obtained with human memory CD4^+ T cells activated and cultured for three days in the presence of IL-23, IL-1β, and/or PGE2. […] Results from nine independent donors are shown. […] Results from four different donors are shown. Horizontal lines represent medians.
as §1
ELISA and electrochemiluminescence assays are performed as described previously (Wilson et al. (2007), supra). IL-10 ELISA is performed using a kit from R&D Systems.
as §2
Intervention with therapeutic agents, such as antagonists of the inflammatory cytokines and non-cytokine immunomodulators, might therefore be expected to be beneficial when administered both systemically and also when administered locally at (or near) the site of inflammation.

CD161+ Thmem cells = assay: IL-17 production by lamina propria CD161+ Thmem cells cultured with IL-23; format: cell-based, human; conditions: CD161+ Thmem cells cultured in the presence of IL-23
Description: (§3) Colon and peripheral blood (PB) samples are obtained from Crohn's Disease patients. Lamina propria mononuclear cells (LPMC) are prepared from colon samples by dissociation of the epithelial layer of the mucosa, collagenase digestion of the lamina propria, and density gradient centrifugation. Peripheral blood mononuclear cells (PBMC) are isolated from PB by density gradient centrifugation and lysis of red blood cells.
Colon samples from CD patients contain approximately 20-fold more CD161^+ CD4^+ memory T cells, as determined by flow cytometry, than colon samples from normal subjects. FACS® flow cytometry purified lamina propria CD161^+ Thmem cells are found to produce 4 to 6-fold more IL-17 than CD161^− Thmem cells (as measured by ELISA) in both CD and normal samples.

PBMC CD161+ Thmem cells = assay: IL-17 production by PBMC CD161+ Thmem cells from CD patients cultured with IL-23; format: cell-based, human
Description: as §3
This Th17 phenotype is increased in Crohn's disease patients.

[2] = memory T cells cultured three days, FIG. 7A

Row | Molecule | percentage of IL-23R expressing CD4+ T cells (IL-23R) | IL-1R1 gene expression (IL-1R1) | IL-10 expression (naïve human CD4+ T cells; FIG. 5C) | percentage of naïve human CD4+ T cells expressing CCR6 (CCR6) | IFN-γ levels [1, 2] | IL-10 levels [1, 2] | IL-17A levels [1, 2] | ROR-γt expression ([1]; real-time RT-PCR, FIG. 7B) | IL-17 expression (naïve human CD4+ T cells; FIG. 5A) | enhancement of IL-17 production (CD161+ Thmem cells) | IL-17 production (PBMC CD161+ Thmem cells)
1 | CCCCC[C@H](O)/C=C/[C@H]1[C@H](O)CC(=O)[C@@H]1C/C=C\CCCC(=O)O [PGE2, prostaglandin E2] | more than doubles | increased | Downregulation | increase in the percentage | does not promote increased levels | does not promote increased levels | promotes increased levels | promotes increased levels of the IL-17A and expression of ROR-γt |  |  | 
2 | CCCC1([C@H](O)C/C=C/[C@H]2[C@H](O)CC(=O)[C@@H]2CCCCCCC(=O)OC)CCC1 [butaprost] | more than doubles |  |  |  |  |  |  |  | somewhat greater increase in IL-17 expression than misoprostol |  | 
3 | IL-23: protein consisting of two polypeptide subunits, p19 and p40 (protein, UniProt Q9NPF7 20-189; P29460 23-328, looked up) Interleukin-23 subunit alpha: RAVPGGSSPAWTQCQQLSQKLCTLAWSAHPLVGHMDLREEGDEETTNDVPHIQCGDGCDPQGLRDNSQFCLQRIHQGLIFYEKLLGSDIFTGEPSLLPDSPVGQLHASLLGLSQLLQPEGHHWETQQIPSLSPSQPWQRLLLRFKILRSLQAFVAVAARVFAHGAATLSP Interleukin-12 subunit beta: IWELKKDVYVVELDWYPDAPGEMVVLTCDTPEEDGITWTLDQSSEVLGSGKTLTIQVKEFGDAGQYTCHKGGEVLSHSLLLLHKKEDGIWSTDILKDQKEPKNKTFLRCEAKNYSGRFTCWWLTTISTDLTFSVKSSRGSSDPQGVTCGAATLSAERVRGDNKEYEYSVECQEDSACPAAEESLPIEVMVDAVHKLKYENYTSSFFIRDIIKPDPPKNLQLKPLKNSRQVEVSWEYPDTWSTPHSYFSLTFCVQVQGKSKREKKDRVFTDKTSATVICRKNASISVRAQDRYYSSSWSEWASVPCS |  |  |  |  |  |  |  |  |  | approximately 3 fold | increased IL-17 production

— US20120156699A1, “Pathogenic TH17 Cells; related reagents and methods” (Schering Corporation, priority 2007, published 2012)
